Laboratory results as given in patent US20040132996A1, “Method for preparation of ceftiofur and salts thereof” (LUPIN LIMITED, priority 2002, published 2004).

Test: Storage stability of the product at 40° ± 2° C. for 90 days (drop in assay)
Assay type: physicochemical
Details: for Storage Stability: assay after storage: after 90 days at 40° ± 2° C.; for Storage Stability: assay at start: before storage at 40° ± 2° C.; for storage stability (statement in words): product obtained by the process of the invention

Compound | Storage Stability (90 days at 40° ± 2° C.) | Storage Stability: assay after storage [%] | Storage Stability: assay at start [%] | storage stability (statement in words)
CO/N=C(\C(=O)N[C@@H]1C(=O)N2C(C(=O)O)=C(CSC(=O)c3ccco3)CS[C@H]12)c1csc(N)n1 [ceftiofur (Ia)] | Stable for 90 days at 40° ± 2 °C with a | 92 | 97 | high storage stability
CO/N=C(\C(=O)N[C@@H]1C(=O)N2C(C(=O)[O-])=C(CSC(=O)c3ccco3)CS[C@H]12)c1csc(N)n1.[Na+] [ceftiofur sodium (Ib)] |  | 87 | 94 | high storage stability
